Data reported in patent US20130296392A1, “METHODS FOR THE TREATMENT OF OVERACTIVE BLADDER” (THERAVIDA, INC., priority 2012, published 2013).

Experiments:
healthy individuals [1] = test: Stimulated salivary flow (SSF), change from pre-dose baseline; type: in vivo, human
Description: Stimulated salivary flow (SSF) and dry mouth (assessed using a “visual analog scale,” or VAS) were determined at frequent intervals after administration of each treatment. Urine frequency, urine volume/void, and fluid volume consumed were also assessed for each treatment. […] SSF was measured in the following manner. […] The subject may have expectorated saliva in the containers several times if there was excessive saliva. The SSF values were tabulated at each time point and descriptive statistics were generated by treatment, for measured values and changes from pre-dose baseline. Total weight of saliva over time was analyzed using analysis of variance, with Tukey's method of comparison between treatments. Dry mouth was tabulated at each time point and descriptive statistics were generated by treatment, for measured values and changes from pre-dose baseline. Urine frequency, urine volume/void and fluid volume consumed were tabulated and summarized by treatment.

healthy individuals [2] = test: Dry mouth assessment by visual analog scale (VAS); type: in vivo, human; conditions: for Change from Baseline of Dry Mouth Assessment (VAS), Mean: VAS 0=not dry, 10=very dry
Description: Stimulated salivary flow (SSF) and dry mouth (assessed using a “visual analog scale,” or VAS) were determined at frequent intervals after administration of each treatment. Urine frequency, urine volume/void, and fluid volume consumed were also assessed for each treatment.
The SSF values were tabulated at each time point and descriptive statistics were generated by treatment, for measured values and changes from pre-dose baseline. Total weight of saliva over time was analyzed using analysis of variance, with Tukey's method of comparison between treatments. Dry mouth was tabulated at each time point and descriptive statistics were generated by treatment, for measured values and changes from pre-dose baseline. Urine frequency, urine volume/void and fluid volume consumed were tabulated and summarized by treatment.
For qualitative assessment of dry mouth, the “visual analog scale,” or VAS, scale (0=not dry, 10=very dry, measured in centimeters) was used. Each subject was asked to mark a vertical line the VAS scale on how dry their mouth was at that moment.
VAS is a well-known method. In this method, subjects were shown a line scaled from 0 to 10 cm. Subjects were asked to rate the subjective criterion from 0-10 cm and make a mark on the line corresponding to their rating. For example, subjects were told that 0 cm on the line means no dry mouth at all and 10 cm on the line means extreme dry mouth. The subjects rated their extent of dry mouth on the line. Changes in the extent of dry mouth of a subject were measured using this technique throughout the treatment period.

| Structure (SMILES) | Mean SSF Change from Pre-dose Baseline (healthy individuals [1]; 1 hour post-dose) [g] | Mean SSF Change from Pre-dose Baseline (healthy individuals [1]; 2 hours post-dose) [g] | Mean SSF Change from Pre-dose Baseline (healthy individuals [1]; 3 hours post-dose) [g] | Mean SSF Change from Pre-dose Baseline (healthy individuals [1]; 4 hours post-dose) [g] | Mean SSF Change from Pre-dose Baseline (healthy individuals [1]; 6 hours post-dose) [g] | Mean SSF Change from Pre-dose Baseline (healthy individuals [1]; 9 hours post-dose) [g] | Mean SSF Change from Pre-dose Baseline (healthy individuals [1]; 12 hours post-dose) [g] | Mean VAS scores of dry mouth over time (healthy individuals [2]; 1 hour and 2 hour time points, compared with each of the other treatments) | Change from Baseline of Dry Mouth Assessment (VAS), Mean (healthy individuals [2]; 1 hour post-dose) [cm] | Change from Baseline of Dry Mouth Assessment (VAS), Mean (healthy individuals [2]; 2 hours post-dose) [cm] | Change from Baseline of Dry Mouth Assessment (VAS), Mean (healthy individuals [2]; 3 hours post-dose) [cm] | Change from Baseline of Dry Mouth Assessment (VAS), Mean (healthy individuals [2]; 4 hours post-dose) [cm] | Change from Baseline of Dry Mouth Assessment (VAS), Mean (healthy individuals [2]; 6 hours post-dose) [cm] | Change from Baseline of Dry Mouth Assessment (VAS), Mean (healthy individuals [2]; […] post-dose) [cm] | SSF after administration, in words (healthy individuals [1]; compared with placebo and pilocarpine alone (Treatment B)) |
| --- | --- | --- | --- | --- | --- | --- | --- | --- | --- | --- | --- | --- | --- | --- | --- |
| CC[C@@H]1C(=O)OC[C@@H]1Cc1cncn1C [Treatment B, pilocarpine] | 4.55 | 2.33 | 1.07 | 0.64 | 0.32 | -0.20 | -0.08 | markedly lower | −3.00 | −2.34 | −0.94 | −0.69 | −0.41 | −1.38 |  |
| Cc1ccc(O)c([C@H](CCN(C(C)C)C(C)C)c2ccccc2)c1 [Treatment A, tolterodine] | -0.3 | -0.42 | -0.28 | 0.05 | 0.21 | -0.06 | 0.27 |  | 0.03 | 0.63 | 0.97 | 0.56 | 0.00 | 0.56 | decrease in SSF |
